Data set [1] is described as follows: Stability in human plasma at 37° C. The class given is in vitro ADME. The conditions noted are these: for % of Time 0 / remaining at 1 h, 1000 ng/ml / remaining at 8 h, 1000 ng/ml / remaining at 22 h, 1000 ng/ml: 1000 ng/ml; for % of Time 0: 0.00 hrs, N=3; for remaining at 1 h, 1000 ng/ml / remaining at 8 h, 1000 ng/ml / remaining at 22 h, 1000 ng/ml: N=3, read-out: % of Time 0; for resistance to proteolytic degradation compared with GLP1 peptide: 8 and 22 hours of incubation. How it is done: The stability and resistance to proteolytic degradation of a number of ALY688-GLP1v fusion peptides were assessed following incubation in human plasma at 37° C.
HPLC (Supelco Discovery BIO Wide Pore C5-3 (2.1×50 mm) with a slow gradient to separate possible degradation products) was used to quantify each peptide. High resolution mass spectrometry (Thermo Q Exactive) Plus was used to collect full scan and MS2 spectra to characterize any possible degradants. The data were evaluated both manually and using Proteome Discoverer data mining software.
In the above tables, Temperature=37° C., Concentration=1000 ng/ml, and N=3/time point.

Data set [2] can be described thus: Oral glucose tolerance test after single intravenous injection in mice. It counts as in vivo. Conditions: mice fasted 4 hours, intravenous injection 10 minutes before oral glucose load 1 g/kg. The protocol: The oral glucose load was 1 g glucose/kg body weight. Blood glucose levels were measured with a glucometer at time −30 minutes, 0 (right before the oral glucose load), 15, 30, 60 and 90 minutes after the oral glucose load. Mice were euthanized after the time 90 minutes.

Data set [3] can be described thus: Pharmacokinetic profile in mice after single subcutaneous injection. The class given is in vivo. Conditions: 10 mg/kg; for AUC(0-t) / Cmax / Tmax: mouse, sc, plasma. The protocol: GLP1v peptide (with Gly8 substitution) and GLP1v fusion peptides were administered once by subcutaneous injection (concentration=10 mg/kg). Blood was collected into K2EDTA tubes containing a cocktails of protease inhibitors (DPP-4 and Aprotinin). The Bioanalytical Method BAM.0634.01 was used for the quantitation of GLP1v and GLP1v fusion peptides in K2EDTA mouse plasma. It is based on protein precipitation extraction followed by LC-MS/MS instrumental analysis and covers a measurement range from 1.00 to 1000 ng/mL. Samples were analyzed on a Waters Acquity liquid chromatograph interfaced with a Thermo Scientific TSQ Vantage triple quadrupole mass spectrometer with ESI ionization.

Data set [4] relates to P38MAPK (T180/Y182) phosphorylation. Conditions: L6 murine skeletal muscle cells, ALY688 alone, previously shown; cited from earlier work.

Read-outs that look alike come from different tables or passages of the source. [ ]: non-standard residue; d: D form. Nva = CCC[C@H](N)C(=O)O

Usually AUC(0-t) stands for the area under the concentration-time curve up to a stated or last time point. Low values mean low exposure, high ones high exposure. As usually defined, the Cmax is the maximum level reached in the sampled fluid or tissue. As usually defined, the Tmax is the time from dosing to the highest level.

As to `CCC[C@H](NC(=O)[C@@H]1CCCN1C(=O)[C@@H](NC(=O)[C@H](N)CC(N)=O)[C@@H](C)CC)C(=O)N[C@@H](CC(C)C)C(=O)N[C@@H](Cc1ccc(O)cc1)C(=O)N[C@H](CO)C(=O)N[C@@H](Cc1ccccc1)C(=O)N[C@@H](C)C(=O)N[C@H](CO)C(=O)NCC(=O)NCC(=O)NCC(=O)NCCCC[C@H](NC(=O)[C@H](C)NC(=O)[C@H](C)NC(=O)[C@H](CCC(N)=O)NC(=O)CNC(=O)[C@H](CCC(=O)O)NC(=O)[C@H](CC(C)C)NC(=O)[C@H](Cc1ccc(O)cc1)NC(=O)[C@H](CO)NC(=O)[C@H](CO)NC(=O)[C@@H](NC(=O)[C@H](CC(=O)O)NC(=O)[C@H](CO)NC(=O)[C@@H](NC(=O)[C@H](Cc1ccccc1)NC(=O)[C@@H](NC(=O)CNC(=O)[C@H](CCC(=O)O)NC(=O)CNC(=O)[C@@H](N)Cc1c[nH]cn1)[C@@H](C)O)[C@@H](C)O)C(C)C)C(=O)N[C@@H](CCC(=O)O)C(=O)N[C@@H](Cc1ccccc1)C(=O)N[C@H](C(=O)N[C@@H](C)C(=O)N[C@@H](Cc1c[nH]c2ccccc12)C(=O)N[C@@H](CC(C)C)C(=O)N[C@H](C(=O)N[C@@H](CCCCN)C(=O)NCC(=O)N[C@@H](CCCNC(=N)N)C(N)=O)C(C)C)[C@@H](C)CC` [ALY688-GLP1v(Lys26)], in data set [1], the “% of Time 0” value stood at 100%; the remaining at 1 h, 1000 ng/ml stood at 99%; the remaining at 8 h, 1000 ng/ml turned out to be 74%; the remaining at 22 h, 1000 ng/ml was found to be 40%. Further, the “resistance to proteolytic degradation compared with GLP1 peptide” value in data set [1] is reported as “better resistance to proteolytic degradation”. Further, the “blood glucose levels after glucose load” value in data set [2] is on record as “greater glucose lowering action”. For the same molecule, in data set [3], the “change in AUC / total exposure compared with GLP1v peptide” value (“change in AUC / total exposure” below) is “two-fold increase”, the AUC(0-t) is 1020 ng·h/mL, the highest level (Cmax) was 1610 ng/mL and the Tmax was 10 min.

As to `CCC[C@H](NC(=O)[C@@H]1CCCN1C(=O)[C@@H](NC(=O)[C@H](N)CC(N)=O)[C@@H](C)CC)C(=O)N[C@@H](CC(C)C)C(=O)N[C@@H](Cc1ccc(O)cc1)C(=O)N[C@H](CO)C(=O)N[C@@H](Cc1ccccc1)C(=O)N[C@@H](C)C(=O)N[C@H](CO)C(=O)NCC(=O)NCC(=O)NCC(=O)NCCCC[C@H](NC(=O)[C@H](C)NC(=O)[C@H](C)NC(=O)[C@H](CCC(N)=O)NC(=O)CNC(=O)[C@H](CCC(=O)O)NC(=O)[C@H](CC(C)C)NC(=O)[C@H](Cc1ccc(O)cc1)NC(=O)[C@H](CO)NC(=O)[C@H](CO)NC(=O)[C@@H](NC(=O)[C@H](CC(=O)O)NC(=O)[C@H](CO)NC(=O)[C@@H](NC(=O)[C@H](Cc1ccccc1)NC(=O)[C@@H](NC(=O)CNC(=O)[C@H](CCC(=O)O)NC(=O)CNC(=O)[C@@H](N)Cc1c[nH]cn1)[C@@H](C)O)[C@@H](C)O)C(C)C)C(=O)N[C@@H](CCC(=O)O)C(=O)N[C@@H](Cc1ccccc1)C(=O)N[C@H](C(=O)N[C@@H](C)C(=O)N[C@@H](Cc1c[nH]c2ccccc12)C(=O)N[C@@H](CC(C)C)C(=O)N[C@H](C(=O)N[C@@H](CCCCNC(=O)CNC(=O)CNC(=O)CNC(=O)[C@@H](CO)NC(=O)[C@H](C)NC(=O)[C@H](Cc1ccccc1)NC(=O)[C@@H](CO)NC(=O)[C@H](Cc1ccc(O)cc1)NC(=O)[C@H](CC(C)C)NC(=O)[C@H](CCC)NC(=O)[C@@H]1CCCN1C(=O)[C@@H](NC(=O)[C@H](N)CC(N)=O)[C@@H](C)CC)C(=O)NCC(=O)N[C@@H](CCCNC(=N)N)C(N)=O)C(C)C)[C@@H](C)CC` [ALY688-GLP1v(Lys26,34)], in data set [3], the “change in AUC / total exposure” value is “decrease in total exposure”, the “change in Tmax compared with GLP1v peptide” value is “further increase in the Tmax”, the AUC(0-t) is 358 ng·h/mL and the Cmax stood at 372 ng/mL. Besides, the Tmax in data set [3] was 15 min.

In the case of `CCC[C@H](NC(=O)[C@@H]1CCCN1C(=O)[C@@H](NC(=O)[C@H](N)CC(N)=O)[C@@H](C)CC)C(=O)N[C@@H](CC(C)C)C(=O)N[C@@H](Cc1ccc(O)cc1)C(=O)N[C@H](CO)C(=O)N[C@@H](Cc1ccccc1)C(=O)N[C@@H](C)C(=O)N[C@H](CO)C(=O)NCC(=O)NCC(=O)NCC(=O)NCCCC[C@H](NC(=O)[C@@H](NC(=O)[C@H](CC(C)C)NC(=O)[C@H](Cc1c[nH]c2ccccc12)NC(=O)[C@H](C)NC(=O)[C@@H](NC(=O)[C@H](Cc1ccccc1)NC(=O)[C@H](CCC(=O)O)NC(=O)[C@H](CCCCN)NC(=O)[C@H](C)NC(=O)[C@H](C)NC(=O)[C@H](CCC(N)=O)NC(=O)CNC(=O)[C@H](CCC(=O)O)NC(=O)[C@H](CC(C)C)NC(=O)[C@H](Cc1ccc(O)cc1)NC(=O)[C@H](CO)NC(=O)[C@H](CO)NC(=O)[C@@H](NC(=O)[C@H](CC(=O)O)NC(=O)[C@H](CO)NC(=O)[C@@H](NC(=O)[C@H](Cc1ccccc1)NC(=O)[C@@H](NC(=O)CNC(=O)[C@H](CCC(=O)O)NC(=O)CNC(=O)[C@@H](N)Cc1c[nH]cn1)[C@@H](C)O)[C@@H](C)O)C(C)C)[C@@H](C)CC)C(C)C)C(=O)NCC(=O)N[C@@H](CCCNC(=N)N)C(N)=O` [ALY688-GLP1v(Lys34)], in data set [1], the “% of Time 0” value was determined as 100%; the remaining at 1 h, 1000 ng/ml was determined as 95%; the remaining at 8 h, 1000 ng/ml was found to be 74%; the remaining at 22 h, 1000 ng/ml came out at 49%. Besides, the “resistance to proteolytic degradation compared with GLP1 peptide” value in data set [1] is on record as “better resistance to proteolytic degradation”. In data set [2], the “blood glucose levels after glucose load” value is on record as “greater glucose lowering action”. In data set [3], the “change in AUC / total exposure” value is “decrease in total exposure”, the “change in Tmax compared with GLP1v peptide” value is “further increase in the Tmax”, the AUC(0-t) is 177 ng·h/mL and the Cmax worked out at 267 ng/mL. For the same molecule, the Tmax in data set [3] is 15 min.

For the molecule `CC[C@H](C)[C@H](NC(=O)[C@H](Cc1ccccc1)NC(=O)[C@H](CCC(=O)O)NC(=O)[C@H](CCCCN)NC(=O)[C@H](C)NC(=O)[C@H](C)NC(=O)[C@H](CCC(N)=O)NC(=O)CNC(=O)[C@H](CCC(=O)O)NC(=O)[C@H](CC(C)C)NC(=O)[C@H](Cc1ccc(O)cc1)NC(=O)[C@H](CO)NC(=O)[C@H](CO)NC(=O)[C@@H](NC(=O)[C@H](CC(=O)O)NC(=O)[C@H](CO)NC(=O)[C@@H](NC(=O)[C@H](Cc1ccccc1)NC(=O)[C@@H](NC(=O)CNC(=O)[C@H](CCC(=O)O)NC(=O)CNC(=O)[C@@H](N)Cc1cnc[nH]1)[C@@H](C)O)[C@@H](C)O)C(C)C)C(=O)N[C@@H](C)C(=O)N[C@@H](Cc1c[nH]c2ccccc12)C(=O)N[C@@H](CC(C)C)C(=O)N[C@H](C(=O)N[C@@H](CCCCN)C(=O)NCC(=O)N[C@@H](CCCNC(=N)N)C(N)=O)C(C)C` [GLP1v with Gly8 substitution, reference compound], the “% of Time 0” value in data set [1] worked out at 100%. In data set [1] (human plasma (K2EDTA)), the remaining at 1 h, 1000 ng/ml came out at 85%; the remaining at 8 h, 1000 ng/ml stood at 41%; the remaining at 22 h, 1000 ng/ml is 24%. In addition, the “blood glucose levels after glucose load” value in data set [2] is on record as “expected glucose-lowering activity”. In addition, in data set [3], the AUC(0-t) was 525 ng·h/mL, the Cmax came out at 781 ng/mL and the time of peak concentration (Tmax) was 5 min.

In the case of “H-DAsn-Ile-Pro-Nva-Leu-Tyr-DSer-Phe-Ala-DSer-NH2 (H-[dN]IP[Nva]LY[dS]FA[dS]-NH2; SMILES CCC[C@H](NC(=O)[C@@H]1CCCN1C(=O)[C@@H](NC(=O)[C@H](N)CC(N)=O)[C@@H](C)CC)C(=O)N[C@@H](CC(C)C)C(=O)N[C@@H](Cc1ccc(O)cc1)C(=O)N[C@H](CO)C(=O)N[C@@H](Cc1ccccc1)C(=O)N[C@@H](C)C(=O)N[C@H](CO)C(N)=O) [ALY688, 10 amino acid chemically synthesized adiponectin receptor agonist peptide, reference compound]”, the “blood glucose levels after glucose load” value in data set [2] was “no glucose effect”. In data set [4], the “P38MAPK (T180/Y182) phosphorylation” value is listed as “increased”.

These data come from patent US20230021946A1, “MONOMERIC FUSION PEPTIDES AND METHOD OF USE THEREOF” (priority 2021, published 2023).
